Measured values published in patent publication US20250339569A1, “CARBONIC ANHYDRASE IX LIGANDS” (priority 2021, published 2025).
pIC50: −log10 of the molar value. Like-named read-outs stand apart in the source and are kept apart here. Starred links: 1 amine or outer side, 2 acyl side, 3 side chain; linkers in the order of their positions; H or OH if unused. Positions of bridges follow the written chain, without caps; N, C: chain ends. Non-standard residues stand in square brackets, D forms with d. Residues, ends and D or L forms follow the SMILES beside them. *: point of attachment. NH(CH2)3NH(O2Oc(DOTA)) = O=C(O)CN1CCN(CC(=O)O)CCN(CC(=O)NCCOCCOCC(=O)NCCCN*)CCN(CC(=O)O)CC1; Phe(3-NHCO(CH2)3SO2NH2) = N[C@@H](Cc1cccc(NC(=O)CCCS(N)(=O)=O)c1)C(=O)O; DOTA = O=C(O)CN1CCN(CC(=O)O)CCN(CC(=O)*)CCN(CC(=O)O)CC1; X43 = CCC(=O)Nc1cccc(C[C@H](N[*:1])C(=O)[*:2])c1; X7 = O=C([C@H](Cc1cccc(N[*:3])c1)N[*:1])[*:2]; Phe(4-NH2) = Nc1ccc(C[C@H](N)C(=O)O)cc1; X55 = O=C1Nc2ccc(C(=O)*)cc2S(=O)(=O)N1; mXylylene = c1cc(C[*:1])cc(C[*:2])c1; X46 = NS(=O)(=O)c1c[nH]c(C(=O)*)c1; Orn(Me2) = CN(C)CCC[C@H](N)C(=O)O; X2 = O=C(CN1CCC(N[*:1])CC1)[*:2]; X1 = O=C(CN1CCN([*:1])CC1)[*:2]; Isonicotinoyl = O=C(c1ccncc1)*; Pen = CC(C)(S)[C@H](N)C(=O)O; Isovaleryl = CC(C)CC(=O)*; Bz = O=C(c1ccccc1)*; X56 = O=C(c1nccs1)*

Biological target: T1, CAIX-expressing human HT-29 colorectal cancer cells (Homo sapiens, UniProt Q16790)
T1 construct: CAIX-expressing human HT-29 colorectal cancer cells; host or cells: HT-29 human colorectal cancer cells
Assay: FACS binding assay (IC50 determination, competition with tracer 3BP-2776 or 3BP-4149)
Conditions: for IC50: 4° C., 1 hour, read-out: pIC50 category (activity) (converted)
How it was run: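 HT-29 cells in FACS buffer (PBS, 1% FCS) at 500.000 cells/ml were exposed to compounds competing with a labelled tracer, with biotinylated compounds detected by 1 μg/mL APC-streptavidin for 30 min on ice. APC/Cy5 median fluorescence was read by flow cytometry and IC50 derived by 4PL fit.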

[1] = FACS competition on HT-29 cells, Tracer ID 3BP-2776 (10 nM, biotin-labeled)
[2] = FACS binding assay, HT-29 cells, competition with tracer 3BP-2776 (10 nM, biotin-labeled)

Structure (SMILES) | IC50 [1] [nM] | IC50 [2] [nM] | also measured
CC(C)C[C@@H]1NC(=O)[C@H](Cc2cccc(NC(=O)c3ccc4c(c3)S(=O)(=O)NC(=O)N4)c2)NC(=O)[C@H](CC(=O)O)NC(=O)[C@H]2CCCN2C(=O)[C@H](CCC(=O)O)NC(=O)[C@@H](NC(=O)[C@H](Cc2ccc(O)cc2)NC(=O)[C@@H](NC(=O)CN2CCC(NC(=O)CN3CCN(CC(=O)O)CCN(CC(=O)O)CCN(CC(=O)O)CC3)CC2)C(C)C)CSCc2cccc(c2)CSC[C@@H](C(N)=O)NC(=O)[C@H](CO)NC(=O)[C@H](Cc2c[nH]c3ccccc23)NC(=O)[C@H]([C@@H](C)O)NC1=O [3BP-4415] ({DOTA}-[X2]VYCE[dP]D[X7](X55)LTWSC-NH2; linker 4-13 via mXylylene) |  |  | IC50 (FACS binding assay, HT-29 cells, competition with tracer 3BP-4149 (3 nM, Cy5-labeled)): 100 to 794 nM
CC(=O)N[C@@H](Cc1ccc(O)cc1)C(=O)N[C@H]1CSCc2cccc(c2)CSC[C@@H](C(N)=O)NC(=O)[C@H](CO)NC(=O)[C@H](Cc2c[nH]c3ccccc23)NC(=O)[C@H]([C@@H](C)O)NC(=O)[C@H](CC(C)C)NC(=O)[C@H](Cc2c[nH]c3ccccc23)NC(=O)[C@H](CC(=O)O)NC(=O)[C@H]2CCCN2C(=O)[C@H](CCC(=O)O)NC1=O [3BP-3729] (Ac-YCE[dP]DWLTWSC-NH2; linker 2-11 via mXylylene) | < 10 |  | 
CC(C)CC(=O)N[C@@H](CCCNC(=N)N)C(=O)N[C@H]1CSCc2cccc(c2)CSC[C@@H](C(N)=O)NC(=O)[C@H](CCC(=O)NCCCNC(=O)COCCOCCNC(=O)CN2CCN(CC(=O)O)CCN(CC(=O)O)CCN(CC(=O)O)CC2)NC(=O)[C@H](Cc2c[nH]c3ccccc23)NC(=O)[C@H]([C@@H](C)O)NC(=O)[C@H](CC(C)C)NC(=O)[C@H](Cc2c[nH]c3ccccc23)NC(=O)[C@H](CC(=O)O)NC(=O)[C@H]2CCCN2C(=O)[C@H](CCC(=O)O)NC1=O [3BP-3741] (Isovaleryl-RCE[dP]DWLTWE(NH(CH2)3NH(O2Oc(DOTA)))C-NH2; linker 2-11 via mXylylene) | 10 to 79.4 |  | 
CC(C)C[C@@H]1NC(=O)[C@H](Cc2ccc(NC(=O)c3nccs3)cc2)NC(=O)[C@H](CC(=O)O)NC(=O)[C@H]2CCCN2C(=O)[C@H](CCC(=O)O)NC(=O)[C@@H](NC(=O)[C@H](Cc2ccc(O)cc2)NC(=O)[C@@H](NC(=O)CN2CCC(NC(=O)CN3CCN(CC(=O)O)CCN(CC(=O)O)CCN(CC(=O)O)CC3)CC2)C(C)C)CSCc2cccc(c2)CSC[C@@H](C(N)=O)NC(=O)[C@H](CO)NC(=O)[C@H](Cc2c[nH]c3ccccc23)NC(=O)[C@H]([C@@H](C)O)NC1=O [3BP-4180] ({DOTA}-[X2]VYCE[dP]D[Phe(4-NH2)](X56)LTWSC-NH2; linker 4-13 via mXylylene) |  | 100 to 794 | 
CC(C)C[C@@H]1NC(=O)[C@H](Cc2ccc(NC(=O)c3ccccc3)cc2)NC(=O)[C@H](CC(=O)O)NC(=O)[C@H]2CCCN2C(=O)[C@H](CCC(=O)O)NC(=O)[C@@H](NC(=O)[C@H](Cc2ccc(O)cc2)NC(=O)[C@@H](NC(=O)CN2CCC(NC(=O)CN3CCN(CC(=O)O)CCN(CC(=O)O)CCN(CC(=O)O)CC3)CC2)C(C)C)CSCc2cccc(c2)CSC[C@@H](C(N)=O)NC(=O)[C@H](CO)NC(=O)[C@H](Cc2c[nH]c3ccccc23)NC(=O)[C@H]([C@@H](C)O)NC1=O [3BP-4171] ({DOTA}-[X2]VYCE[dP]D[Phe(4-NH2)](Bz)LTWSC-NH2; linker 4-13 via mXylylene) |  |  | pIC50: 6.10 to 7.00
CC(=O)N[C@H](C(=O)N[C@@H](Cc1ccc(O)cc1)C(=O)N[C@H]1CSCc2cccc(c2)CSC[C@@H](C(N)=O)NC(=O)CNC(=O)[C@H](Cc2c[nH]c3ccccc23)NC(=O)[C@H]([C@@H](C)O)NC(=O)[C@H](CC(C)C)NC(=O)[C@H](Cc2c[nH]c3ccccc23)NC(=O)[C@H](CC(=O)O)NC(=O)[C@@H](C)NC(=O)[C@H](CCC(=O)O)NC1=O)C(C)C [3BP-3284] (Ac-VYCE[dA]DWLTWGC-NH2; linker 3-12 via mXylylene) | < 10 |  | 
CC(C)C[C@@H]1NC(=O)[C@H](Cc2c[nH]c3ccccc23)NC(=O)[C@H](CC(=O)O)NC(=O)[C@H]2CCCN2C(=O)[C@H](CCC(=O)O)NC(=O)[C@@H](NC(=O)[C@H](Cc2ccc(O)cc2)NC(=O)[C@@H](NC(=O)CN2CCC(NC(=O)CN3CCN(CC(=O)O)CCN(CC(=O)O)CCN(CC(=O)O)CC3)CC2)C(C)C)CSCc2cccc(c2)CSC[C@@H](C(N)=O)NC(=O)[C@H](CCCN(C)C)NC(=O)[C@H](Cc2c[nH]c3ccccc23)NC(=O)[C@H]([C@@H](C)O)NC1=O [3BP-4100] ({DOTA}-[X2]VYCE[dP]DWLTW[Orn(Me2)]C-NH2; linker 4-13 via mXylylene) |  | < 10 | 
CC(=O)N[C@H](C(=O)N[C@@H](Cc1ccc(O)cc1)C(=O)N[C@H]1CSCc2cccc(c2)CSC[C@@H](C(N)=O)NC(=O)[C@H](CO)NC(=O)[C@H](Cc2c[nH]c3ccccc23)NC(=O)[C@H]2CCC(=O)NCCCC[C@H](NC(=O)[C@H]3CCCN3C(=O)[C@H](CCC(=O)O)NC1=O)C(=O)N[C@@H](Cc1c[nH]c3ccccc13)C(=O)N[C@@H](CC(C)C)C(=O)N2)C(C)C [3BP-3957] (Ac-VYCE[dP]KWL[dE]WSC-NH2; linker 3-12 via mXylylene; lactam 6-9) | < 10 |  | 
CC(=O)N[C@H](C(=O)N[C@@H](Cc1ccc(O)cc1)C(=O)N[C@@H]1C(=O)N[C@@H](CCC(=O)O)C(=O)NCC(=O)N[C@@H](CC(=O)O)C(=O)N[C@@H](Cc2c[nH]c3ccccc23)C(=O)N[C@@H](CC(C)C)C(=O)N[C@@H]([C@@H](C)O)C(=O)N[C@@H](Cc2c[nH]c3ccccc23)C(=O)N[C@@H](CCC(N)=O)C(=O)N[C@H](C(N)=O)CSCc2cccc(c2)CSC1(C)C)C(C)C [3BP-3063] (Ac-VY[Pen]EGDWLTWQC-NH2; linker 3-12 via mXylylene) | 10 to 79.4 |  | 
CC(=O)N[C@H](C(=O)N[C@@H](Cc1ccccc1)C(=O)N[C@H]1CSCc2cccc(c2)CSC[C@@H](C(N)=O)NC(=O)[C@H](CO)NC(=O)[C@H](Cc2c[nH]c3ccccc23)NC(=O)[C@H]([C@@H](C)O)NC(=O)[C@H](CC(C)C)NC(=O)[C@H](Cc2c[nH]c3ccccc23)NC(=O)[C@H](CC(=O)O)NC(=O)[C@H]2CCCN2C(=O)[C@H](CCC(=O)O)NC1=O)C(C)C [3BP-3570] (Ac-VFCE[dP]DWLTWSC-NH2; linker 3-12 via mXylylene) | < 10 |  | 
CCC(=O)Nc1cccc(C[C@@H]2NC(=O)[C@H](CC(=O)O)NC(=O)[C@H]3CCCN3C(=O)[C@H](CCC(=O)O)NC(=O)[C@@H](NC(=O)[C@H](Cc3ccc(O)cc3)NC(=O)[C@@H](NC(=O)CN3CCC(NC(=O)CN4CCN(CC(=O)O)CCN(CC(=O)O)CCN(CC(=O)O)CC4)CC3)C(C)C)CSCc3cccc(c3)CSC[C@@H](C(N)=O)NC(=O)[C@H](CO)NC(=O)[C@H](Cc3c[nH]c4ccccc34)NC(=O)[C@H]([C@@H](C)O)NC(=O)[C@H](CC(C)C)NC2=O)c1 [3BP-4235] ({DOTA}-[X2]VYCE[dP]D[X43]LTWSC-NH2; linker 4-13 via mXylylene) |  | < 10 | 

The next lines start with results.

IC50 [1] [nM] | IC50 [2] [nM] | Structure (SMILES) | also measured
10 to 79.4 |  | CC(=O)N[C@@H](C(=O)N[C@@H](Cc1ccc(O)cc1)C(=O)N[C@H]1CSCc2cccc(c2)CSC[C@@H](C(N)=O)NC(=O)[C@H](CCC(N)=O)NC(=O)[C@H](Cc2c[nH]c3ccccc23)NC(=O)[C@H]([C@@H](C)O)NC(=O)[C@H](CC(C)C)NC(=O)[C@H](Cc2c[nH]c3ccccc23)NC(=O)[C@H](CC(=O)O)NC(=O)CNC(=O)[C@H](CCC(=O)O)NC1=O)C(C)C [3BP-3043] (Ac-[dV]YCEGDWLTWQC-NH2; linker 3-12 via mXylylene) | 
 | < 10 | CC(C)C[C@@H]1NC(=O)[C@H](Cc2cccc(NC(=O)CCCS(N)(=O)=O)c2)NC(=O)[C@H](CC(=O)O)NC(=O)[C@H]2CCCN2C(=O)[C@H](CCC(=O)O)NC(=O)[C@@H](NC(=O)[C@H](CCCNC(=N)N)NC(=O)CN2CCN(C(=O)CN3CCN(CC(=O)O)CCN(CC(=O)O)CCN(CC(=O)O)CC3)CC2)CSCc2cccc(c2)CSC[C@@H](C(N)=O)NC(=O)[C@H](CO)NC(=O)[C@H](Cc2c[nH]c3ccccc23)NC(=O)[C@H]([C@@H](C)O)NC1=O [3BP-4451] ({DOTA}-[X1]RCE[dP]D[Phe(3-NHCO(CH2)3SO2NH2)]LTWSC-NH2; linker 3-12 via mXylylene) | 
 | 100 to 794 | CC(C)C[C@@H]1NC(=O)[C@H](Cc2ccc(NC(=O)c3ccncc3)cc2)NC(=O)[C@H](CC(=O)O)NC(=O)[C@H]2CCCN2C(=O)[C@H](CCC(=O)O)NC(=O)[C@@H](NC(=O)[C@H](Cc2ccc(O)cc2)NC(=O)[C@@H](NC(=O)CN2CCC(NC(=O)CN3CCN(CC(=O)O)CCN(CC(=O)O)CCN(CC(=O)O)CC3)CC2)C(C)C)CSCc2cccc(c2)CSC[C@@H](C(N)=O)NC(=O)[C@H](CO)NC(=O)[C@H](Cc2c[nH]c3ccccc23)NC(=O)[C@H]([C@@H](C)O)NC1=O [3BP-4183] ({DOTA}-[X2]VYCE[dP]D[Phe(4-NH2)](Isonicotinoyl)LTWSC-NH2; linker 4-13 via mXylylene) | 
10 to 79.4 |  | CC(=O)N[C@H](C(=O)N[C@@H](Cc1ccc(O)cc1)C(=O)N[C@H]1CSCc2cccc(c2)CSC[C@@H](C(N)=O)NC(=O)[C@H](CO)NC(=O)[C@H](Cc2c[nH]c3ccccc23)NC(=O)[C@@H]2CCC(=O)NCCCC[C@H](NC1=O)C(=O)N1CCC[C@@H]1C(=O)N[C@@H](CC(=O)O)C(=O)N[C@@H](Cc1c[nH]c3ccccc13)C(=O)N[C@@H](CC(C)C)C(=O)N2)C(C)C [3BP-3888] (Ac-VYCK[dP]DWLEWSC-NH2; linker 3-12 via mXylylene; lactam 4-9) | 
 | 100 to 794 | CC(C)C[C@@H]1NC(=O)[C@H](Cc2ccc(NC(=O)c3cc(S(N)(=O)=O)c[nH]3)cc2)NC(=O)[C@H](CC(=O)O)NC(=O)[C@H]2CCCN2C(=O)[C@H](CCC(=O)O)NC(=O)[C@@H](NC(=O)[C@H](CCC(N)=O)NC(=O)CN2CCN(C(=O)CN3CCN(CC(=O)O)CCN(CC(=O)O)CCN(CC(=O)O)CC3)CC2)CSCc2cccc(c2)CSC[C@@H](C(N)=O)NC(=O)[C@H](CO)NC(=O)[C@H](Cc2c[nH]c3ccccc23)NC(=O)[C@H]([C@@H](C)O)NC1=O [3BP-4814] ({DOTA}-[X1]QCE[dP]D[Phe(4-NH2)](X46)LTWSC-NH2; linker 3-12 via mXylylene) | 
